Experimental data taken from PubChem BioAssay (NCI).
Values joined by “and” are separate entries in the source; they are usually repeats but may differ in a detail not shown here. Identical values can stand only once.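 1) Cells in 96-well plates. 2) Compound, 48 h, 5 concentrations. 3) Linear interpolation between surrounding doses. 4) Unreached endpoint = highest concentration. GI50 = concentration required for 50% inhibition of growth. The concentration for full growth arrest is given as TGI.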 Where a SMILES comes first, the peptide text is derived from it. [ ]: non-standard residue; d: D form. Orn = NCCC[CH](N)C(=O)O

Assays:
Test in all cases: NCI anticancer screen, dose series, 48 h
786-0 renal = tested on: 786-0 renal
CAKI-1 renal = tested on: CAKI-1 renal
EKVX NSCLC = tested on: EKVX NSCLC
HOP-92 NSCLC = tested on: HOP-92 NSCLC
OVCAR-4 ovarian = tested on: OVCAR-4 ovarian
OVCAR-8 ovarian = tested on: OVCAR-8 ovarian
SF-268 CNS = tested on: SF-268 CNS
SF-295 CNS = tested on: SF-295 CNS
SR leukemia = tested on: SR leukemia
U251 CNS = tested on: U251 CNS

| SMILES | GI50 (786-0 renal) | TGI (786-0 renal) | GI50 (CAKI-1 renal) | TGI (CAKI-1 renal) | GI50 (EKVX NSCLC) | TGI (EKVX NSCLC) | GI50 (HOP-92 NSCLC) | TGI (HOP-92 NSCLC) | GI50 (OVCAR-4 ovarian) [µM] | TGI (OVCAR-4 ovarian) [µM] | GI50 (OVCAR-8 ovarian) | TGI (OVCAR-8 ovarian) | GI50 (SF-268 CNS) | TGI (SF-268 CNS) | GI50 (SF-295 CNS) | TGI (SF-295 CNS) | GI50 (SR leukemia) | TGI (SR leukemia) | GI50 (U251 CNS) [µM] | TGI (U251 CNS) |
| --- | --- | --- | --- | --- | --- | --- | --- | --- | --- | --- | --- | --- | --- | --- | --- | --- | --- | --- | --- | --- |
| C[C@H]1[C@H](C)CC[C@]2(C(=O)O)CC[C@]3(C)C(=CC[C@@H]4[C@@]5(C)CC[C@H](OC(=O)/C=C\c6ccc(O)cc6)C(C)(C)[C@@H]5CC[C@]43C)[C@H]12 | 3.22 µM | 16 µM | 3.71 µM | 15.6 µM | 3.11 µM | 13.7 µM | 4.25 µM | 19.2 µM | 10.6 | 28.8 | 2.6 µM | 9.1 µM | 3.23 µM | 14.8 µM | 3.03 µM | 31.2 µM | 2.69 µM | 6.66 µM | 2 | 9.41 µM |
| COc1ccc2c(c1)N(CCC1CCCCN1C)c1ccccc1S2 (stereo not drawn) |  | 29.5 µM |  | 21.5 µM |  | 36.5 µM |  | 22.6 µM |  | 24 |  | 30.9 µM |  | 26.6 µM |  | 31.2 µM |  | 20.9 µM |  | 23.8 µM |
| COc1cccc(-c2cc(NCc3ccc4c(c3)OCO4)nc(N)n2)c1 | 0.0819 µM | 12.9 µM | 1.06 µM | 32.4 µM | 3.33 µM | 52.3 µM | 4.04 µM | 20.5 µM | 0.225 | 27.5 | 0.123 µM | 5.2 µM | 3.29 µM | 22.9 µM | 0.0597 µM | 14.4 µM | 0.0453 µM | 75 µM | 0.0552 | 11.2 µM |
| Cc1cc(Cl)ccc1Nc1nc(C(F)(F)F)ccc1C(=O)N/N=C/c1c(Cl)cccc1Cl | 0.292 µM | 1.08 µM | 0.0557 µM | 3.28 µM | 0.211 µM | 2.97 µM | 0.221 µM | 0.664 µM | 0.289 | > 100 | 0.445 µM | > 100 µM | 0.354 µM | > 36.4 µM | 0.0741 µM | 0.376 µM | 0.263 µM | > 100 µM | 0.245 | > 70.8 µM |
| Cc1cc(Cl)ccc1Nc1nc(C(F)(F)F)ccc1C(=O)N/N=C/c1ccc(F)cc1 | 1.45 µM | 5.93 µM | 1.82 µM | 6.55 µM | 1.13 µM | 8.17 µM | 1.75 µM | 6.14 µM | 0.513 | 12.9 | 1.48 µM | 6.33 µM | 1.14 µM | 5.64 µM | 0.71 µM | 3.63 µM | 0.863 µM | 3.62 µM | 1.52 | 10.6 µM |
| O=C(Nc1ncc(Cc2ccc(Cl)cc2)s1)c1ccc2c(c1)OCCO2 | 0.0728 µM | > 100 µM | 0.0547 µM | 39 µM | 0.412 µM | > 100 µM | 2.12 µM | > 100 µM | 0.547 | > 52.1 | 0.17 µM | > 100 µM | 0.786 µM | > 100 µM | 0.0424 µM | 2.02 µM | 0.0528 µM | > 100 µM | 0.0549 | > 45.3 µM |
| Nc1nn(C(=O)Nc2ccc(Cc3ccccc3)cc2)c2ccccc12 | 3.76 µM | 26.2 µM | 21.1 µM | 58 µM | 11.2 µM | 92 µM | 14.2 µM | 42.6 µM | 10.7 | 40.4 | 21.9 µM | 63.9 µM | 4.66 µM | 32.3 µM | 0.53 µM | > 100 µM | 0.0153 µM | 0.0822 µM | 13.9 | 30.2 µM |
| CC1=C(C(=O)Nc2ccc(Cl)c(Cl)c2)C(c2cccc(O)c2)NC(=S)N1 (stereo not drawn) | 9.47 µM | 20 µM | 14.4 µM | 38.5 µM | 9.38 µM | 21.4 µM | 13.6 µM | 35.2 µM | 12.4 | > 50 | 15.9 µM | 28.1 µM | 8.35 µM | 17 µM | 8.63 µM | 17.6 µM | 14.2 µM | 49 µM | 8.82 | 18.1 µM |
| CC(C)CC1NC(=O)C(CCCN)NC(=O)C(C(C)C)NC(=O)C2CCCN2C(=O)C(Cc2ccccc2)NC(=O)C(CC(C)C)NC(=O)C(CCCN)NC(=O)C(C(C)C)NC(=O)C2CCCN2C(=O)C(Cc2ccccc2)NC1=O (stereo not drawn) (cyclo(FPV[Orn]LFPV[Orn]L); configuration not given here) | 0.0451 µM and 0.0506 µM | 0.46 µM and 1.26 µM | 0.564 µM and 1.02 µM | 2.14 µM and 7.23 µM | 0.0105 µM and 0.0175 µM | 0.442 µM and 1.23 µM | 0.00661 µM and 0.0126 µM | 0.0204 µM and 0.0545 µM | 0.0133 |  | 0.0113 µM and 0.0252 µM | 0.591 µM and 1.32 µM | 0.0168 µM and 0.0594 µM | 0.565 µM and 1.66 µM | 0.00644 µM and 0.0206 µM | 0.0186 µM and 0.0735 µM | 0.0148 µM and 0.036 µM | 0.258 µM and 0.96 µM | < 0.00325 | 0.14 µM and 0.117 µM |
| COc1ccc(OC)c(/C=C/c2cnnc3ccccc23)c1 |  | > 10 µM |  | > 10 µM |  | > 10 µM |  | > 10 µM |  | > 10 |  | > 10 µM |  | > 10 µM |  | > 10 µM |  | 5.14 µM |  | > 10 µM |
| O=C(CCc1cc(-c2ccco2)n(-c2ccc([N+](=O)[O-])cc2[N+](=O)[O-])n1)Nc1ccccc1 |  | > 100 µM |  | > 100 µM |  | > 100 µM |  | > 100 µM |  | > 100 |  | > 100 µM |  | > 100 µM |  | > 100 µM |  | > 100 µM |  | > 100 µM |
| CCCNNC(=O)c1ccc(CNC(=O)/C=C/c2ccccc2)cc1 | 0.314 µM | > 100 µM | 0.174 µM | 0.733 µM | 0.311 µM | > 100 µM | 0.0821 µM | 0.609 µM | 0.375 | > 100 | 0.114 µM | > 100 µM | 0.316 µM |  | 0.164 µM | 0.596 µM | 0.18 µM | > 100 µM | 0.198 | 1.71 µM |
| O=[N+]([O-])c1ccc(C2N3CCCCC3[C@@H]3c4[nH]c5ccccc5c4CCN23)cc1 (stereo partly drawn) |  | > 100 µM |  | > 100 µM |  | > 100 µM |  | > 100 µM |  | > 100 |  | > 100 µM |  | 43 µM |  | > 100 µM |  | > 100 µM |  | 58.1 µM |
| COC(=O)c1cc(O)ccc1NC(=O)c1ccc(O)cc1 |  | > 100 µM |  | > 100 µM |  | > 100 µM |  | > 100 µM |  | > 100 |  | > 100 µM |  | > 100 µM |  | > 100 µM |  | > 100 µM |  | > 100 µM |
| CCNCCNc1cc(C2CCCC2)c(C#N)c2nc3ccccc3n12 | 2.69 µM | 9.79 µM | 3.59 µM | 14.5 µM | 4.73 µM | 21.5 µM | 2.08 µM | 4.4 µM | 3.22 | 13 | 3.52 µM | 10.6 µM | 3.28 µM | 14 µM | 1.7 µM | 3.46 µM | 1.66 µM | 6.13 µM | 2.21 | 4.27 µM |
| Cc1ccc(S(=O)(=O)C2=C3C(=C(c4ccccc4)c4ccccc43)CN(S(=O)(=O)c3ccc(C)cc3)C2)cc1 | 1.67 µM | 3.22 µM | 11.5 µM | > 100 µM | 6.01 µM | > 100 µM | 1.86 µM | 13.8 µM | 5.31 | 72.9 | 2.65 µM | 38.1 µM | 2.6 µM | 12.9 µM | 9.97 µM | 57 µM | 1.55 µM | 25.7 µM | 3.01 | 12.7 µM |
| COc1ccc2oc(-c3ccc(Cl)cc3)c(N3CCN(C)CC3)c2c1 | 1.75 µM | 3.42 µM | 1.57 µM | 3.27 µM | 0.603 µM | 2.47 µM | 0.37 µM | 2.78 µM | 2.12 | 7.22 | 1.9 µM | 3.94 µM | 2.36 µM | 5.61 µM | 2.06 µM | 5.12 µM | 2.27 µM | 8.12 µM | 1.64 | 3.14 µM |
| COC1(C)Cc2c(c(C)c(O)c3c2C(=O)C=C(Cl)C3=O)O1 (stereo not drawn) |  | > 100 µM |  | 42 µM |  | > 100 µM |  | 36.4 µM |  | > 86.8 |  | > 73.6 µM |  | > 100 µM |  | > 100 µM |  | 23.5 µM |  | > 100 µM |
